In PubChem BioAssay AID1259407 (Chemical Carcinogenesis Research Information System (CCRIS), 2018):
The source made the active and inactive calls. The rule behind the calls is not given here.

System: CCRIS mutagenicity, Ames/micronucleus/aberration tests
Experiment: CCRIS mutagenicity studies
[1] = Test System: AMES SALMONELLA TYPHIMURIUM, Strain/Indicator: TA98, Metabolic Activation: NONE, Method: PREINCUBATION
[2] = Test System: AMES SALMONELLA TYPHIMURIUM, Strain/Indicator: TA100, Metabolic Activation: NONE, Method: PREINCUBATION
[3] = Test System: AMES SALMONELLA TYPHIMURIUM, Strain/Indicator: TA1535, Metabolic Activation: NONE, Method: PREINCUBATION
[4] = Test System: AMES SALMONELLA TYPHIMURIUM, Strain/Indicator: TA1537, Metabolic Activation: NONE, Method: PREINCUBATION
[5] = Test System: AMES SALMONELLA TYPHIMURIUM, Strain/Indicator: TA98, Metabolic Activation: NONE, Method: STANDARD PLATE
[6] = Test System: AMES SALMONELLA TYPHIMURIUM, Strain/Indicator: TA100, Metabolic Activation: NONE, Method: STANDARD PLATE
[7] = Test System: AMES SALMONELLA TYPHIMURIUM, Strain/Indicator: TA1535, Metabolic Activation: NONE, Method: STANDARD PLATE

`COCCOC(C)=O` was tested, and the mutagenic call (End Point: IN VITRO CHROMOSOMAL ABERRATIONS, Test System: CHO-LB CELLS, Metabolic Activation: NONE) was “inactive; negative”, the mutagenic call (End Point: IN VITRO CHROMOSOMAL ABERRATIONS, Test System: CHO-LB CELLS, Metabolic Activation: RAT, LIVER, S-9, AROCLOR 1254) was “active; positive” and the mutagenic call (Test System: AMES SALMONELLA TYPHIMURIUM, Strain/Indicator: TA97, Metabolic Activation: HAMSTER, LIVER, S-9, AROCLOR 1254 (10 OR 30%), Method: PREINCUBATION) was “inactive; negative”. The mutagenic call (Test System: AMES SALMONELLA TYPHIMURIUM, Strain/Indicator: TA97, Metabolic Activation: NONE, Method: PREINCUBATION) was “inactive; negative”, the mutagenic call (Test System: AMES SALMONELLA TYPHIMURIUM, Strain/Indicator: TA97, Metabolic Activation: RAT, LIVER, S-9, AROCLOR 1254 (10 OR 30%), Method: PREINCUBATION) was “inactive; negative” and the mutagenic call (Test System: AMES SALMONELLA TYPHIMURIUM, Strain/Indicator: TA98, Metabolic Activation: HAMSTER, LIVER, S-9, AROCLOR 1254 (10 OR 30%), Method: PREINCUBATION) was “inactive; negative”. The mutagenic call [1] was “inactive; negative”, the mutagenic call (Test System: AMES SALMONELLA TYPHIMURIUM, Strain/Indicator: TA98, Metabolic Activation: RAT, LIVER, S-9, AROCLOR 1254 (10 OR 30%), Method: PREINCUBATION) was “inactive; negative” and the mutagenic call (Test System: AMES SALMONELLA TYPHIMURIUM, Strain/Indicator: TA100, Metabolic Activation: HAMSTER, LIVER, S-9, AROCLOR 1254 (10 OR 30%), Method: PREINCUBATION) was “inactive; negative”. The mutagenic call [2] was “inactive; negative”, the mutagenic call (Test System: AMES SALMONELLA TYPHIMURIUM, Strain/Indicator: TA100, Metabolic Activation: RAT, LIVER, S-9, AROCLOR 1254 (10 OR 30%), Method: PREINCUBATION) was “inactive; negative” and the mutagenic call (Test System: AMES SALMONELLA TYPHIMURIUM, Strain/Indicator: TA1535, Metabolic Activation: HAMSTER, LIVER, S-9, AROCLOR 1254 (10 OR 30%), Method: PREINCUBATION) was “inactive; negative”. For the same compound, the mutagenic call [3] was “inactive; negative”, the mutagenic call (Test System: AMES SALMONELLA TYPHIMURIUM, Strain/Indicator: TA1535, Metabolic Activation: RAT, LIVER, S-9, AROCLOR 1254 (10 OR 30%), Method: PREINCUBATION) was “inactive; negative” and the mutagenic call (Test System: AMES SALMONELLA TYPHIMURIUM, Strain/Indicator: TA1537, Metabolic Activation: HAMSTER, LIVER, S-9, AROCLOR 1254 (30%), Method: PREINCUBATION) was “inactive; negative”. For the same compound, the mutagenic call [4] was “inactive; negative” and the mutagenic call (Test System: AMES SALMONELLA TYPHIMURIUM, Strain/Indicator: TA1537, Metabolic Activation: RAT, LIVER, S-9, AROCLOR 1254 (30%), Method: PREINCUBATION) was “inactive; negative”.
For `CC[C@H]1CN2CCc3cc(OC)c(OC)cc3[C@@H]2C[C@@H]1C[C@H]1NCCc2cc(OC)c(OC)cc21`, the mutagenic call (Test System: AMES SALMONELLA TYPHIMURIUM, Strain/Indicator: TA98, Metabolic Activation: HAMSTER, LIVER, S-9, AROCLOR 1254 (10%), Method: PREINCUBATION) was “inactive; negative”, the mutagenic call [1] was “inactive; negative” and the mutagenic call (Test System: AMES SALMONELLA TYPHIMURIUM, Strain/Indicator: TA98, Metabolic Activation: RAT, LIVER, S-9, AROCLOR 1254 (10%), Method: PREINCUBATION) was “inactive; negative”. The mutagenic call (Test System: AMES SALMONELLA TYPHIMURIUM, Strain/Indicator: TA100, Metabolic Activation: HAMSTER, LIVER, S-9, AROCLOR 1254 (10%), Method: PREINCUBATION) was “inactive; negative”, the mutagenic call [2] was “inactive; negative” and the mutagenic call (Test System: AMES SALMONELLA TYPHIMURIUM, Strain/Indicator: TA100, Metabolic Activation: RAT, LIVER, S-9, AROCLOR 1254 (10%), Method: PREINCUBATION) was “inactive; negative”. For the same compound, the mutagenic call (Test System: AMES SALMONELLA TYPHIMURIUM, Strain/Indicator: TA1535, Metabolic Activation: HAMSTER, LIVER, S-9, AROCLOR 1254 (10%), Method: PREINCUBATION) was “inactive; negative”, the mutagenic call [3] was “inactive; negative” and the mutagenic call (Test System: AMES SALMONELLA TYPHIMURIUM, Strain/Indicator: TA1535, Metabolic Activation: RAT, LIVER, S-9, AROCLOR 1254 (10%), Method: PREINCUBATION) was “inactive; negative”. For the same compound, the mutagenic call (Test System: AMES SALMONELLA TYPHIMURIUM, Strain/Indicator: TA1537, Metabolic Activation: HAMSTER, LIVER, S-9, AROCLOR 1254 (10%), Method: PREINCUBATION) was “inactive; negative”, the mutagenic call [4] was “inactive; negative” and the mutagenic call (Test System: AMES SALMONELLA TYPHIMURIUM, Strain/Indicator: TA1537, Metabolic Activation: RAT, LIVER, S-9, AROCLOR 1254 (10%), Method: PREINCUBATION) was “inactive; negative”.
For `Cc1ccc(C)c2c3c(ccc12)C(O)C(O)C1OC31` (stereo not drawn), the mutagenic call [5] was “active; positive” and the mutagenic call [6] was “active; positive”.
In the case of `O=C(O[C@@H]1Cc2c(O)cc(O)cc2O[C@H]1c1cc(O)c(O)c(O)c1)c1cc(O)c(O)c(O)c1`, the mutagenic call (Test System: Ames Salmonella typhimurium, Strain/Indicator: TA102, Metabolic Activation: None, Method: Preincubation) is reported as “inactive; negative” and the mutagenic call (Test System: Ames Salmonella typhimurium, Strain/Indicator: TA102, Metabolic Activation: Rat, Liver, S-9, Aroclor 1254 in 0.154 M KCl, Method: Preincubation) is reported as “inactive; negative”.
In the case of `CN1CCN(C2=Nc3ccccc3Oc3ccc(Cl)cc32)CC1`, the mutagenic call [5] is reported as “inactive; negative”, the mutagenic call (Test System: AMES SALMONELLA TYPHIMURIUM, Strain/Indicator: TA98, Metabolic Activation: RAT, LIVER, S-9, AROCLOR 1254, Method: STANDARD PLATE) is reported as “inactive; negative” and the mutagenic call [6] is reported as “inactive; negative”. For the same compound, the mutagenic call (Test System: AMES SALMONELLA TYPHIMURIUM, Strain/Indicator: TA100, Metabolic Activation: RAT, LIVER, S-9, AROCLOR 1254, Method: STANDARD PLATE) was “inactive; negative”, the mutagenic call [7] was “inactive; negative” and the mutagenic call (Test System: AMES SALMONELLA TYPHIMURIUM, Strain/Indicator: TA1535, Metabolic Activation: RAT, LIVER, S-9, AROCLOR 1254, Method: STANDARD PLATE) was “inactive; negative”. For the same compound, the mutagenic call (Test System: AMES SALMONELLA TYPHIMURIUM, Strain/Indicator: TA1537, Metabolic Activation: NONE, Method: STANDARD PLATE) was “inactive; negative” and the mutagenic call (Test System: AMES SALMONELLA TYPHIMURIUM, Strain/Indicator: TA1537, Metabolic Activation: RAT, LIVER, S-9, AROCLOR 1254, Method: STANDARD PLATE) was “inactive; negative”.
For `CCCC/C=C/C=O`, the mutagenic call [2] was “inactive; negative”, the mutagenic call (Test System: AMES SALMONELLA TYPHIMURIUM, Strain/Indicator: TA100, Metabolic Activation: NONE, Method: PREINCUBATION (THREEFOLD CELL DENSITY)) was “active; positive” and the mutagenic call (Test System: AMES SALMONELLA TYPHIMURIUM, Strain/Indicator: TA100, Metabolic Activation: RAT, LIVER, S-9, AROCLOR 1254, Method: PREINCUBATION) was “inactive; negative”. For the same compound, the mutagenic call (Test System: AMES SALMONELLA TYPHIMURIUM, Strain/Indicator: TA100, Metabolic Activation: RAT, LIVER, S-9, AROCLOR 1254, Method: PREINCUBATION (THREEFOLD CELL DENSITY)) was “inactive; negative”, the mutagenic call (Test System: CHINESE HAMSTER V-79, Strain/Indicator: V-79/6-THIOGUANINE, Metabolic Activation: NONE, Method: STANDARD PLATE) was “active; positive” and the mutagenic call (Test System: CHINESE HAMSTER V-79, Strain/Indicator: V-79/OUABAIN, Metabolic Activation: NONE, Method: STANDARD PLATE) was “active; positive”.
For `CN(C)c1nc(N(C)C)nc(N(C)C)n1`, the mutagenic call [2] was “inactive; negative”, the mutagenic call (Test System: AMES SALMONELLA TYPHIMURIUM, Strain/Indicator: TA100, Metabolic Activation: RAT, LIVER, S-9, AROCLOR 1254 (4 OR 10%), Method: PREINCUBATION) was “inactive; negative” and the mutagenic call (Test System: AMES SALMONELLA TYPHIMURIUM, Strain/Indicator: TA100, Metabolic Activation: RAT, LIVER, S-9, AROCLOR 1254 (10%), Method: STANDARD PLATE) was “inactive; negative”. The mutagenic call (Test System: AMES SALMONELLA TYPHIMURIUM, Strain/Indicator: TA100, Metabolic Activation: RAT, LIVER, S-9, AROCLOR 1254 (30%), Method: PREINCUBATION) was “active; positive”.
`C(COCC1CO1)OCC1CO1` (stereo not drawn) was tested, and the mutagenic call [6] was “active; positive” and the mutagenic call [7] was “active; positive”.
